The source of these data is patent EP3046573B1, “AMYLIN ANALOGUES” (Zealand Pharma A/S, priority 2013, dated 2015).

For this assay, the system named is Zucker diabetic fatty (ZDF) rats. The assay can be described thus: Glycemic control in Zucker diabetic fatty rats. Particulars: 40 nmol/kg sc twice daily (bid), P < 0.001. The class given is in vivo, male Zucker diabetic fatty (ZDF) rats. The protocol: Whole-blood glucose levels were determined on tail-vein blood samples by the Biosen (EKF Diagnostic, Germany) enzyme-based electrode method. Blood samples were analyzed for glycated hemoglobin (HbA1c) using a Cobas c111 analyzer (Roche Diagnostics, Mannheim, Germany). Plasma insulin levels were measured using a Meso Scale Discovery (MSD) system (Rockville, MD, USA). Liver fat content was determined by magnetic resonance (MR) scanning using an Echo systems MR scanner. Fat depots were measured by weighing of excised fat.
84 male Zucker diabetic fatty (ZDF) rats (9-10 weeks of age) were used in this study. The animals were housed in groups of n = 2. Stratification of the animals was based on non-fasting blood glucose (primary), changes in non-fasting blood glucose measured from the arrival of the animals until one week before the initiation of the study (secondary) and body weight (tertiary). The animals were further divided into two "teams" with a pair-fed group (group 2) allocated to team 2. […] The amount of food eaten by the animals treated with Compound 82 (30 nmol/kg, team 1) each day was determined, and the same amount was given to a vehicle-treated pair-fed group of animals the following day. […]
Statistical analyses were performed using GraphPad™ Prism version 5. The measured parameters were compared using one- way ANOVA followed by Dunnett's multiple comparison test. […]

For liraglutide, the “blood glucose levels (non-fasting and fasting)” value is given as “significant blood glucose lowering effect”.
